This passage reports IC50 and EC50 results from US8178548B2, “Anti-infective agents and uses thereof” (priority 2007, dated 2012).

Read-outs that look alike come from different tables or passages of the source. Bounds are passed on as bounds.

Experiment [1] concerns the target T1, HCV polymerase 1A (Δ21 NS5B, H77) (Hepatitis C virus genotype 1a, UniProt P27958).
T1 construct: 20 to 50 nM Δ21 NS5B
As to the kind of experiment: biochemical. The protocol: (§1) Either two-fold serial dilutions (fractional inhibition assay) or a narrower range of dilutions spanning the IC50 of the inhibitor (tight binding assay) of the inhibitors were incubated with 20 mM Tris-Cl pH 7.4, 2 mM MnCl2, 1 mM dithiothreitol, 1 mM ethylene diamine tetraacetic acid (EDTA), 60 to 125 μM GTP and 20 to 50 nM Δ21 NS5B (HCV Strain 1B (BK, Genbank accession number M58335, or H77, Genbank accession number AF011751)) for 15 min at room temperature. The reaction was initiated by the addition of 20 μM CTP, 20 μM ATP, 1 μM ^3H-UTP (10 mCi/umol), 5 nM template RNA and 0.1 U/μl RNase inhibitor (RNasin, Promega), and allowed to proceed for 2 to 4 h at room temperature. Reaction volume was 50 μl. The reaction was terminated by the addition of 1 volume of 4 mM spermine in 10 mM Tris-Cl pH 8.0, 1 mM EDTA. After incubation for at least 15 min at room temperature, the precipitated RNA was captured by filtering through a GF/B filter (Millipore) in a 96 well format. The filter plate was washed three times with 200 μl each of 2 mM spermine, 10 mM Tris-Cl pH 8.0, 1 mM EDTA, and 2 times with ethanol. After air-drying, 30 μl of Microscint 20 scintillation cocktail (Packard) was added to each well, and the retained cpm were determined by scintillation counting. […] Retained cpm were plotted vs. inhibitor concentration and fit to equation 1 using non-linear regression (ref. 1) to obtain the IC50 values: Retained cpm=A[sqrt{(IC50+It−Et)^2+4*IC50*Et}−(IC50+It−Et)]
(§2) Ref. Morrison, J. F. and S. R. Stone. 1985. Approaches to the study and analysis of the inhibition of enzymes by slow- and tight-binding inhibitors. Comments Mol. Cell. Biophys. 2: 347-368.
(§3) The sequence of the template RNA used was: 5′-[…] […] […] […] […] […] […] […] […] […] […] […] […] […] […] […] […]-3′ (SEQ ID NO:1).

For experiment [2], the target named is T2, HCV polymerase 1B (Δ21 NS5B, HCV Strain 1B BK) (Hepatitis C virus genotype 1b, UniProt P26663).
T2 construct: 20 to 50 nM Δ21 NS5B
As to the kind of experiment: biochemical. The protocol:
as §1, §2, §3

For experiment [3], the system named is genotype 1a-H77 subgenomic replicon cell line. As to the kind of experiment: HCV Polymerase Replicon Assay, genotype 1a-H77 (luciferase reporter). It is filed as cell-based. Conditions: Hepatitis C virus, 72 h, read-out: EC50 1a.
Experiment [4] has as its system genotype 1b-Con1 subgenomic replicon cell line. As to the kind of experiment: HCV Polymerase Replicon Assay, genotype 1b-Con1 (luciferase reporter). Conditions: Hepatitis C virus, 72 h, read-out: EC50 1b. It counts as cell-based.
The mark [5] stands for this setting: replicon 1a-H77, luciferase, three days.
Where [6] appears, read: replicon 1b-Con1, luciferase, three days.

T1 sequence (P27958 2421-2990, stated change not applied): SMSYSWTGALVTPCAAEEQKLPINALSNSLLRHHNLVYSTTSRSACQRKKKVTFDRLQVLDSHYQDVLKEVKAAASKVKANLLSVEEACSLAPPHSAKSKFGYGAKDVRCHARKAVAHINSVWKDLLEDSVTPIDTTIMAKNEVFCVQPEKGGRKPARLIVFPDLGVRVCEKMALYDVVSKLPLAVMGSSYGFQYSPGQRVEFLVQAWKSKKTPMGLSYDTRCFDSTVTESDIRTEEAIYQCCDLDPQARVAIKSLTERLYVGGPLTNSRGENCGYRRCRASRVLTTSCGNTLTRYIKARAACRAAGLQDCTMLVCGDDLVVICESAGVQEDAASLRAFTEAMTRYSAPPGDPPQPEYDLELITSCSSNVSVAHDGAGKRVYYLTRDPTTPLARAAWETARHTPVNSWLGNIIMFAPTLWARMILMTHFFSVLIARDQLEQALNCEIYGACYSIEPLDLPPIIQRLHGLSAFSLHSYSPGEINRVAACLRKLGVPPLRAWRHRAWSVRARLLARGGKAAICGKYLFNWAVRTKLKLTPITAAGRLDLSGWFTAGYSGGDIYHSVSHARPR
T2 sequence (P26663 2420-2989, stated change not applied): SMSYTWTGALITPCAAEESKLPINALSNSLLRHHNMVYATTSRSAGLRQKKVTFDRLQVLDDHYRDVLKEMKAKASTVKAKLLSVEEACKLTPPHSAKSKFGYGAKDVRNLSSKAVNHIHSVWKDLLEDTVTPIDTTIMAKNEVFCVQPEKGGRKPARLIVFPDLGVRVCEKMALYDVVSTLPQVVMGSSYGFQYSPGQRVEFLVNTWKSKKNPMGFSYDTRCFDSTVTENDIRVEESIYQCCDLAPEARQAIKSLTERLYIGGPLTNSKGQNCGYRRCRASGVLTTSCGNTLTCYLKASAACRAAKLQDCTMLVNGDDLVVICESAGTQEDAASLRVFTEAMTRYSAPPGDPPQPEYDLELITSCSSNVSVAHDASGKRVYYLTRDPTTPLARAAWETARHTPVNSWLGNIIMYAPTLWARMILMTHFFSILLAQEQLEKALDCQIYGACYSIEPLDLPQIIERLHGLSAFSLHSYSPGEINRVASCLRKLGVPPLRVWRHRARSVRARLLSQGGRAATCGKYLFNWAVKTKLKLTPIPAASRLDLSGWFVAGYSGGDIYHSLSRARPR

`COc1c(CCc2ccc(NS(C)(=O)=O)cc2)cc(N2CCC(=O)NC2=O)cc1C(C)(C)C` [IA-L5-2-1.1, N-(4-(3-tert-butyl-5-(2,4-dioxotetrahydropyrimidin-1(2H)-yl)-2-methoxyphenethyl)phenyl)methanesulfonamide]: the 50% inhibitory concentration (IC50) in experiment [1] and in experiment [2] was 10 to 100 nM in each case. Besides, the EC50 is 100 to 1000 nM in experiment [3] (setting [5]) and 10 to 100 nM in experiment [4] (setting [6]).
On to `COc1c(/C=C/c2ccc(NS(C)(=O)=O)cc2C=O)cc(-n2ccc(=O)[nH]c2=O)cc1C(C)(C)C` [IB-L1-1.6, N-(4-{(E)-2-[3-tert-Butyl-5-(2,4-dioxo-3,4-dihydro-2H-pyrimidin-1-yl)-2-methoxy-phenyl]-vinyl}-3-formyl-phenyl)-methanesulfonamide], for which the results for the IC50 in experiment [1] and in experiment [2] were under 10 nM and 10 to 100 nM, respectively. Besides, the 50% effective concentration (EC50) in experiment [3] and in experiment [4] was under 10 nM throughout.
Regarding `COc1c(/C=C/c2ccc(NS(C)(=O)=O)cc2C(=O)N2CCOCC2)cc(-n2ccc(=O)[nH]c2=O)cc1C(C)(C)C` [IB-L1-1.23, (E)-N-(4-(3-tert-butyl-5-(2,4-dioxo-3,4-dihydropyrimidin-1(2H)-yl)-2-methoxystyryl)-3-(morpholine-4-carbonyl)phenyl)methanesulfonamide], the half-maximal inhibitory concentration (IC50) in experiment [1] and in experiment [2] was 10 to 100 nM each time. Further, the EC50 was 100 to 1000 nM in experiment [3] and under 10 nM in experiment [4].
In the case of `COc1c(/C=C/c2ccc(NS(C)(=O)=O)cc2N)cc(-n2ccc(=O)[nH]c2=O)cc1C(C)(C)C` [IB-L1-1.28, (E)-N-(3-amino-4-(3-tert-butyl-5-(2,4-dioxo-3,4-dihydropyrimidin-1(2H)-yl)-2-methoxystyryl)phenyl)methanesulfonamide], the IC50 in experiment [1] and in experiment [2] was 10 to 100 nM in each case. Besides, the concentration giving a half-maximal response (EC50) in experiment [3] and in experiment [4] was under 10 nM in each case.
As to `COc1c(I)cc(-n2ccc(=O)[nH]c2=O)cc1/C=C/c1ccc(NS(C)(=O)=O)cc1` [IB-L1-1.51, (E)-N-(4-(5-(2,4-dioxo-3,4-dihydropyrimidin-1(2H)-yl)-3-iodo-2-methoxystyryl)phenyl)methanesulfonamide], the IC50 in experiment [1] and in experiment [2] was 10 to 100 nM throughout. Further, the EC50 in experiment [3] (setting [5]) is over 1000 nM; in experiment [4] (setting [6]), 10 to 100 nM.
On to `COc1c(/C=C/c2ccc(NS(C)(=O)=O)cc2)cc(N2CCC(=O)NC2=O)cc1C(C)(C)C` [IA-L1-1.9, (E)-N-(4-(3-tert-butyl-5-(2,4-dioxotetrahydropyrimidin-1(2H)-yl)-2-methoxystyryl)phenyl)methanesulfonamide], for which the concentration for half-maximal inhibition (IC50) in experiment [1] is under 10 nM; in experiment [2] it was 10 to 100 nM. The EC50 in experiment [3] is 10 to 100 nM; in experiment [4] it was under 10 nM.
For `COCCN(C)C(=O)c1cc(NS(C)(=O)=O)ccc1/C=C/c1cc(-n2ccc(=O)[nH]c2=O)cc(C(C)(C)C)c1OC` [IB-L1-1.24, 2-{(E)-2-[3-tert-butyl-5-(2,4-dioxo-3,4-dihydro-2H-pyrimidin-1-yl)-2-methoxy-phenyl]-vinyl}-5-methanesulfonylamino-N-(2-methoxy-ethyl)-N-methyl-benzamide], the IC50 in experiment [1] and in experiment [2] was 10 to 100 nM in each case. In addition, the figures for the 50% effective concentration (EC50) in experiment [3] and in experiment [4] were 10 to 100 nM and under 10 nM, respectively.
In the case of `COc1c(/C=C/c2ccc(NS(C)(=O)=O)cc2C(=O)N(C)C)cc(-n2ccc(=O)[nH]c2=O)cc1C(C)(C)C` [IB-L1-1.14, 2-{(E)-2-[3-tert-Butyl-5-(2,4-dioxo-3,4-dihydro-2H-pyrimidin-1-yl)-2-methoxy-phenyl]-vinyl}-5-methanesulfonylamino-N,N-dimethyl-benzamide], the IC50 in experiment [1] is under 10 nM; in experiment [2] it was 10 to 100 nM. The EC50 is 10 to 100 nM in experiment [3] and under 10 nM in experiment [4].
On to `COc1c(/C=C/c2cc(F)c(NS(C)(=O)=O)cc2C)cc(-n2ccc(=O)[nH]c2=O)cc1C(C)(C)C` [IB-L1-1.15, (E)-N-(4-(3-tert-butyl-5-(2,4-dioxo-3,4-dihydropyrimidin-1(2H)-yl)-2-methoxystyryl)-2-fluoro-5-methylphenyl)methanesulfonamide], for which the figures for the concentration for half-maximal inhibition (IC50) in experiment [1] and in experiment [2] were under 10 nM and 10 to 100 nM, respectively. Also, the EC50 in experiment [3] and in experiment [4] was under 10 nM each time.
On to `COc1c(/C=C/c2ccc(NS(C)(=O)=O)cc2)cc(-n2ccc(=O)[nH]c2=O)cc1-c1ccco1` [IB-L1-1.46, (E)-N-(4-(5-(2,4-dioxo-3,4-dihydropyrimidin-1(2H)-yl)-3-(furan-2-yl)-2-methoxystyryl)phenyl)methanesulfonamide], for which the IC50 in experiment [1] and in experiment [2] was 10 to 100 nM throughout. Also, the EC50 in experiment [3] (setting [5]) was 100 to 1000 nM; in experiment [4] (setting [6]) it was under 10 nM.
With `COc1c(/C=C(\F)c2ccc(NS(C)(=O)=O)cc2)cc(N2CCC(=O)NC2=O)cc1C(C)(C)C` [IA-L1-1.4, (Z)-N-(4-(2-(3-tert-butyl-5-(2,4-dioxotetrahydropyrimidin-1(2H)-yl)-2-methoxyphenyl)-1-fluorovinyl)phenyl)methanesulfonamide], the IC50 in experiment [1] and in experiment [2] was under 10 nM throughout. Moreover, the EC50 in experiment [3] and in experiment [4] was under 10 nM each time.
For `COc1c(/C=C/c2ccc(NS(C)(=O)=O)c(F)c2)cc(-n2ccc(=O)[nH]c2=O)cc1C(C)(C)C` [IB-L1-1.5, (E)-N-(4-(3-tert-butyl-5-(2,4-dioxo-3,4-dihydropyrimidin-1(2H)-yl)-2-methoxystyryl)-2-fluorophenyl)methanesulfonamide], the IC50 in experiment [1] and in experiment [2] was under 10 nM each time. Also, the EC50 in experiment [3] was 10 to 100 nM; in experiment [4], under 10 nM.
With `COC(=O)c1cc(NS(C)(=O)=O)ccc1/C=C/c1cc(-n2ccc(=O)[nH]c2=O)cc(C(C)(C)C)c1OC` [IB-L1-1.7, (E)-methyl 2-(3-tert-butyl-5-(2,4-dioxo-3,4-dihydropyrimidin-1(2H)-yl)-2-methoxystyryl)-5-(methylsulfonamido)benzoate], the IC50 in experiment [1] was under 10 nM; in experiment [2], 10 to 100 nM. In addition, the EC50 in experiment [3] and in experiment [4] was under 10 nM throughout.
As to `COCc1cc(NS(C)(=O)=O)ccc1/C=C/c1cc(-n2ccc(=O)[nH]c2=O)cc(C(C)(C)C)c1OC` [IB-L1-1.13, (E)-N-(4-(3-tert-butyl-5-(2,4-dioxo-3,4-dihydropyrimidin-1(2H)-yl)-2-methoxystyryl)-3-(methoxymethyl)phenyl)methanesulfonamide], the values for the half-inhibitory concentration (IC50) in experiment [1] and in experiment [2] were under 10 nM and 10 to 100 nM, respectively. Besides, the figures for the EC50 in experiment [3] and in experiment [4] were 10 to 100 nM and under 10 nM, respectively.
For the molecule `COc1c(/C=C(/F)c2ccc(NS(C)(=O)=O)cc2)cc(N2CCC(=O)NC2=O)cc1C(C)(C)C` [IA-L1-1.5, (E)-N-(4-(2-(3-tert-butyl-5-(2,4-dioxotetrahydropyrimidin-1(2H)-yl)-2-methoxyphenyl)-1-fluorovinyl)phenyl)methanesulfonamide], the figures for the concentration for half-maximal inhibition (IC50) in experiment [1] and in experiment [2] were under 10 nM and 10 to 100 nM, respectively. The EC50 in experiment [3] is 10 to 100 nM; in experiment [4], under 10 nM.
As for `CO/C(=C\c1cc(N2CCC(=O)NC2=O)cc(C(C)(C)C)c1OC)c1ccc(NS(C)(=O)=O)cc1` [IA-L1-1.17, (Z)-N-(4-(2-(3-tert-butyl-5-(2,4-dioxotetrahydropyrimidin-1(2H)-yl)-2-methoxyphenyl)-1-methoxyvinyl)phenyl)methanesulfonamide], the IC50 in experiment [1] and in experiment [2] was 10 to 100 nM each time. Besides, the EC50 in experiment [3] and in experiment [4] was 10 to 100 nM each time.
